This is an account of results in article PMC9381564 (Plant and Cell Physiology, 2022).

The test deals with T1, SoGDH (spinach L-galactose dehydrogenase) (Spinacia oleracea, UniProt Q6BDJ2).
T1 sequence (Q6BDJ2 1-322): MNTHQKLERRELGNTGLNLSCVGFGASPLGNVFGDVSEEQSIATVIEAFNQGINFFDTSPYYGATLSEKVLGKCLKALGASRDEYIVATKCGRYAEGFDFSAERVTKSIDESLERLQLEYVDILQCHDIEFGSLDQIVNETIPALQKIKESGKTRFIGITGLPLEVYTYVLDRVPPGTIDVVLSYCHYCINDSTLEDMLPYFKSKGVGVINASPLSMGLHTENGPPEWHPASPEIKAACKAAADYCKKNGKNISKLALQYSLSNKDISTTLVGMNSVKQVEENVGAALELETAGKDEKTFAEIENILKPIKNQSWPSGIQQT
The test is described as follows: X-ray crystal structure, co-crystallisation, […] A. Particulars: 5 mM NAD+, 1 mM L-galactose in drop, Bis-Tris pH 5.5. The class given is binding.

Structures are written as SMILES.

On to `NC(=O)c1ccc[n+]([C@@H]2O[C@H](COP(=O)(O)OP(=O)(O)OC[C@H]3O[C@@H](n4cnc5c(N)ncnc54)[C@H](O)[C@@H]3O)[C@@H](O)[C@H]2O)c1` [NAD^+], for which the “X-ray crystal structure, co-crystallisation, 1.75 A” value is recorded as “crystals of SoGDH complexed with the cofactor NAD^+ were obtained using co-crystallization”.
